Literature values as cited in patent US20090220426A1, “Biodegradable Inverted-Opal Structure, Method for Manufacturing and Using the Same, and Medical Implant Comprising the Biodegradable Inverted-Opal Structure” (KINKI UNIVERSITY, priority 2006, published 2009).

Test system: mouse

Row | Compound | L.D.50 (oral mouse)
1 | OCC(CO)(CO)CO [pentaerythritol] | 25,500 mg/kg
2 | OCCCCCO [1,5-pentanediol] | 25,500 mg/kg
